Earlier results, collected in patent US11857520B2, “Therapeutic composition of intranasal lidocaine” (Nortic Holdings Inc., priority 2018, dated 2024).

How the values were obtained:
[1] = generally recognized
skin = conditions: HSDB database
[2] = tested on: human retinal pigment epithelial cell; conditions: 0.225 mg/ml in triamcinolone acetonide (TA) following intravitreal injection, at 2 hours

SMILES | Maximum dose [1] [mg/kg] | duration of action [1] [h] | level irritating to the skin (skin) [%] | effect on human retinal pigment epithelial cells [2]
CCN(CC)CC(=O)Nc1c(C)cccc1C [lidocaine] | 4.5 | 0.75 to 1.5 |  | 
CCCN1CCCC[C@H]1C(=O)Nc1c(C)cccc1C [ropivacaine] | 3 |  |  | 
CCCCN1CCCCC1C(=O)Nc1c(C)cccc1C (centres unmarked) [bupivacaine] | 3 |  |  | 
COC(=O)[C@H]1[C@@H](OC(=O)c2ccccc2)C[C@@H]2CC[C@H]1N2C [cocaine] | 3 |  |  | 
Cc1cccc(C)c1NC(=O)C1CCCCN1C (centres unmarked) [mepivacaine] | 4.5 | 1 to 2 |  | 
OCc1ccccc1 [benzyl alcohol] |  |  | ≥ 3 | caused ultrastructural damage and impaired human retinal pigment epithelial cell function
CCCCNc1ccc(C(=O)OCCN(C)C)cc1 [tetracaine] | 3 | 1.5 to 6 |  | 
CCN(CC)CCOC(=O)c1ccc(N)cc1 [procaine] | 12 |  |  | 
CCN(CC)CCOC(=O)c1ccc(N)cc1Cl [chloroprocaine] | 12 |  |  | 
CCCNC(C)C(=O)Nc1ccccc1C (centres unmarked) [prilocaine] | 8 |  |  | 
